Reference: patent US20170253562A1, “Nampt Inhibitors” (AbbVie Inc., priority 2011, published 2017)

Biological target: recombinant, human, C-terminally-His tagged NAMPT (Homo sapiens, UniProt P43490)
Experiment: Time-Resolved Fluorescence Resonance Energy Transfer (TR-FRET) binding assay of NAMPT
Details: 6.8 nM NAMPT, 200 nM probe (Oregon Green 488-conjugated APO866), 2-3 hours
Description: Time-Resolved Fluorescence Resonance Energy Transfer (TR-FRET) Binding Assay of NAMPT
Plates were read with Envision (Laser Lantha low volume protocol) after 2 to 3 hours.

recombinant, human, C-terminally-His tagged NAMPT, sequence (P43490 whole entry): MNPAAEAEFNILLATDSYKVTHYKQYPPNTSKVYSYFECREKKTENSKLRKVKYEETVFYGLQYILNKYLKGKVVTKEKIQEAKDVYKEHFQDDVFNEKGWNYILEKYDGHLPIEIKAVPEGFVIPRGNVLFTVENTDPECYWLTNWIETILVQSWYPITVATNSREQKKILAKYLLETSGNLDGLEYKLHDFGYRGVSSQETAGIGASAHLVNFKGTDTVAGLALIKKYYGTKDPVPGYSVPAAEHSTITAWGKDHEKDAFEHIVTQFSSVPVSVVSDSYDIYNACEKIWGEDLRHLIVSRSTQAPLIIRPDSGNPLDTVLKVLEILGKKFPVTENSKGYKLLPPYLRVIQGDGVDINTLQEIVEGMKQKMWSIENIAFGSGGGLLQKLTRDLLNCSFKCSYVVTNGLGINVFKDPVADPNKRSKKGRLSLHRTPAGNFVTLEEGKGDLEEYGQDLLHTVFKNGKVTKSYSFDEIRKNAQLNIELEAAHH

SMILES | IC50
O=C(Nc1ccc(C(=O)N2CC3(CCCO3)C2)nn1)N1Cc2ccccc2C1 [Example 41, N-[6-(5-oxa-2-azaspiro[3.4]oct-2-ylcarbonyl)pyridazin-3-yl]-1,3-dihydro-2H-isoindole-2-carboxamide] | 344 nM
O=C(NCC1CCC2(CCNCC2)CO1)c1ccc(NC(=O)N2Cc3ccccc3C2)nn1 (centres unmarked) [Example 31, N-{6-[(2-oxa-9-azaspiro[5.5]undec-3-ylmethyl)carbamoyl]pyridazin-3-yl}-1,3-dihydro-2H-isoindole-2-carboxamide] | 253 nM
O=C(Nc1ccc(C(=O)N2CC3COCC3C2)nn1)N1Cc2ccccc2C1 (centres unmarked) [Example 9, N-[6-(tetrahydro-1H-furo[3,4-c]pyrrol-5(3H)-ylcarbonyl)pyridazin-3-yl]-1,3-dihydro-2H-isoindole-2-carboxamide] | 442 nM
CC1(CNC(=O)c2ccc(NC(=O)N3Cc4ccccc4C3)cc2)CCCO1 (centres unmarked) [Example 5, N-(4-{[(2-methyltetrahydrofuran-2-yl)methyl]carbamoyl}phenyl)-1,3-dihydro-2H-isoindole-2-carboxamide] | 6.92 nM
O=C(NC1CCC12CNC2)c1ccc(NC(=O)N2Cc3ccccc3C2)nn1 (centres unmarked) [Example 25, N-[6-(2-azaspiro[3.3]hept-5-ylcarbamoyl)pyridazin-3-yl]-1,3-dihydro-2H-isoindole-2-carboxamide] | 2880 nM
O=C(Nc1ccc(C(=O)N2CCCC3(COC3)C2)nn1)N1Cc2ccccc2C1 [Example 14, N-[6-(2-oxa-6-azaspiro[3.5]non-6-ylcarbonyl)pyridazin-3-yl]-1,3-dihydro-2H-isoindole-2-carboxamide] | 885 nM
N#CC1COC2(CCN(C(=O)c3ccc(NC(=O)N4Cc5ccccc5C4)nn3)CC2)C1 (centres unmarked) [Example 17, N-{6-[(3-cyano-1-oxa-8-azaspiro[4.5]dec-8-yl)carbonyl]pyridazin-3-yl}-1,3-dihydro-2H-isoindole-2-carboxamide] | 158 nM
O=C(Nc1ccc(C(=O)N2CCC3(CCNC3)CC2)nn1)N1Cc2ccccc2C1 [Example 23, N-[6-(2,8-diazaspiro[4.5]dec-8-ylcarbonyl)pyridazin-3-yl]-1,3-dihydro-2H-isoindole-2-carboxamide] | 140 nM
O=C(Nc1ccc(C(=O)N2CCC(C3CNC3)C2)nn1)N1Cc2ccccc2C1 (centres unmarked) [Example 36, N-(6-{[3-(azetidin-3-yl)pyrrolidin-1-yl]carbonyl}pyridazin-3-yl)-1,3-dihydro-2H-isoindole-2-carboxamide] | 791 nM
O=C(Nc1ccc(C(=O)N2CCC3(CCCO3)C2)nn1)N1Cc2ccccc2C1 (centres unmarked) [Example 19, N-[6-(1-oxa-7-azaspiro[4.4]non-7-ylcarbonyl)pyridazin-3-yl]-1,3-dihydro-2H-isoindole-2-carboxamide] | 394 nM
O=C(Nc1ccc(C(=O)N2CC3(CCOCC3)C2)nn1)N1Cc2ccccc2C1 [Example 18, N-[6-(7-oxa-2-azaspiro[3.5]non-2-ylcarbonyl)pyridazin-3-yl]-1,3-dihydro-2H-isoindole-2-carboxamide] | 388 nM
O=C(NCc1nc2c([nH]1)CNCC2)c1ccc(NC(=O)N2Cc3ccccc3C2)nn1 [Example 37, N-{6-[(4,5,6,7-tetrahydro-3H-imidazo[4,5-c]pyridin-2-ylmethyl)carbamoyl]pyridazin-3-yl}-1,3-dihydro-2H-isoindole-2-carboxamide] | 934 nM

Further compounds by falling IC50, results first:

IC50 | SMILES
7190 nM | O=C(Nc1ccc(C(=O)N2CCC3(CNC3)C2)nn1)N1Cc2ccccc2C1 [Example 30, N-[6-(2,6-diazaspiro[3.4]oct-6-ylcarbonyl)pyridazin-3-yl]-1,3-dihydro-2H-isoindole-2-carboxamide]
5850 nM | O=C(Nc1ccc(C(=O)N2CCC3(CCNCC3)C2C(F)(F)F)nn1)N1Cc2ccccc2C1 (centres unmarked) [Example 47, N-(6-{[1-(trifluoromethyl)-2,8-diazaspiro[4.5]dec-2-yl]carbonyl}pyridazin-3-yl)-1,3-dihydro-2H-isoindole-2-carboxamide]
2140 nM | O=C(NCC1CC2(CNC2)CO1)c1ccc(NC(=O)N2Cc3ccccc3C2)nn1 (centres unmarked) [Example 45, N-{6-[(6-oxa-2-azaspiro[3.4]oct-7-ylmethyl)carbamoyl]pyridazin-3-yl}-1,3-dihydro-2H-isoindole-2-carboxamide]
1970 nM | O=C(NCc1nnc2n1CCNC2)c1ccc(NC(=O)N2Cc3ccccc3C2)nn1 [Example 42, N-{6-[(5,6,7,8-tetrahydro[1,2,4]triazolo[4,3-a]pyrazin-3-ylmethyl)carbamoyl]pyridazin-3-yl}-1,3-dihydro-2H-isoindole-2-carboxamide]
952 nM | O=C(Nc1ccc(C(=O)N2CCC3OCCC3C2)nn1)N1Cc2ccccc2C1 (centres unmarked) [Example 10, N-[6-(hexahydrofuro[3,2-c]pyridin-5(4H)-ylcarbonyl)pyridazin-3-yl]-1,3-dihydro-2H-isoindole-2-carboxamide]
869 nM | O=C(NC1COC2(CCNCC2)C1)c1ccc(NC(=O)N2Cc3ccccc3C2)nn1 (centres unmarked) [Example 38, N-[6-(1-oxa-8-azaspiro[4.5]dec-3-ylcarbamoyl)pyridazin-3-yl]-1,3-dihydro-2H-isoindole-2-carboxamide]
648 nM | O=C(NCC1CC12CCNCC2)c1ccc(NC(=O)N2Cc3ccccc3C2)nn1 (centres unmarked) [Example 40, N-{6-[(6-azaspiro[2.5]oct-1-ylmethyl)carbamoyl]pyridazin-3-yl}-1,3-dihydro-2H-isoindole-2-carboxamide]
626 nM | O=C(Nc1ccc(C(=O)N2CC3(COC3)C2)nn1)N1Cc2ccccc2C1 [Example 13, N-[6-(2-oxa-6-azaspiro[3.3]hept-6-ylcarbonyl)pyridazin-3-yl]-1,3-dihydro-2H-isoindole-2-carboxamide]
454 nM | O=C(Nc1ccc(C(=O)N2CC3(CCNCC3)C2)nn1)N1Cc2ccccc2C1 [Example 29, N-[6-(2,7-diazaspiro[3.5]non-2-ylcarbonyl)pyridazin-3-yl]-1,3-dihydro-2H-isoindole-2-carboxamide]
406 nM | O=C(Nc1ccc(C(=O)N2CCC3(CNCCC3F)C2)nn1)N1Cc2ccccc2C1 (centres unmarked) [Example 20, N-{6-[(10-fluoro-2,7-diazaspiro[4.5]dec-2-yl)carbonyl]pyridazin-3-yl}-1,3-dihydro-2H-isoindole-2-carboxamide]
404 nM | O=C(Nc1ccc(C(=O)N2CCC3(CCNCC3)C2)nn1)N1Cc2ccccc2C1 [Example 35, N-[6-(2,8-diazaspiro[4.5]dec-2-ylcarbonyl)pyridazin-3-yl]-1,3-dihydro-2H-isoindole-2-carboxamide]
116 nM | O=C(Nc1ccc(C(=O)N2CCC3(CNCCC3(F)F)C2)nn1)N1Cc2ccccc2C1 (centres unmarked) [Example 16, N-{6-[(10,10-difluoro-2,7-diazaspiro[4.5]dec-2-yl)carbonyl]pyridazin-3-yl}-1,3-dihydro-2H-isoindole-2-carboxamide]
92.2 nM | O=C(Nc1ccc(C(=O)N2CCC3(CC2)COC3)nn1)N1Cc2ccccc2C1 [Example 8, N-[6-(2-oxa-7-azaspiro[3.5]non-7-ylcarbonyl)pyridazin-3-yl]-1,3-dihydro-2H-isoindole-2-carboxamide]
55.6 nM | O=C(NCCN1CCCCCC1)c1ccc(NC(=O)N2Cc3ccccc3C2)cc1 [Example 1, N-(4-{[2-(azepan-1-yl)ethyl]carbamoyl}phenyl)-1,3-dihydro-2H-isoindole-2-carboxamide]
